Results from patent US20240418723A1, “SEQUENTIAL TREATMENTS AND BIOMARKERS TO REVERSE RESISTANCE TO KINASE INHIBITORS” (Queen Mary University of London, priority 2021, published 2024).

How the values were obtained:
P31/Fuj AML cells = experiment: Sequential treatment of P31/Fuj cells (ATRA or LSD1 inhibitor 5 days, then MEKi 3 days; also co-treatment and reverse treatment): cell viability, cell number, apoptosis, CDI; format: cell-based; details: for drug interaction with MEKi in sequential treatment (CDI): alternative LSD1 inhibitor 5 days then trametinib 3 days, P31/Fuj cells (FIGS. 10 D, E)
Experimental: The Bliss independence model was used to derive coefficients of drug interaction (CDI) values, where CDI <1 indicates significant priming by the […] (synergistic effect).
For the proliferation/viability assays, cells were seeded in T75 flasks (0.5×10^6 cells/mL of RPMI/FBS medium) and exposed for 5 days to either vehicle or epigenetic modifier. Unless otherwise specified, the final concentration for GSK2879552 (LSD1i), […] (EZH2i), pinometostat (DOT1Li) and ATRA was 1 μM while for decitabine (DNMTAi) and vorinostat (HDACi) was 100 nM; all epigenetic inhibitors were diluted in DMSO, while ATRA was diluted in Et-OH. Vehicle concentration was kept at 0.1%. […] The final concentration of DMSO was kept at 0.1%. Finally, cells were transferred to 96-well plates (100 μL per well in 3 technical replicates per condition) and cell viability and proliferation were assessed using Guava and ApoTox-Glo Triplex analyses, as indicated below.
For Guava analysis, cells were stained with Guava ViaCount reagent (Luminex #4000-0040) in 96-well plates, by mixing 150 μL of cell suspension with 75 μL of reagent, and left to incubate for a minimum of 10 minutes in the dark, after which they were processed through a Guava easyCyte flow cytometer (Luminex #0500-5005). Flow cytometry data were analysed using CytoSoft (v2.5.7). Viability and cell number values were expressed relative to vehicle control.
For ApoTox-Glo analysis, cell suspensions were transferred to opaque 96-well plates (100 μL per well) and viability and apoptosis measured using ApoTox-Glo Triplex Assay (Promega #G6320). 20 μL of Viability/Cytotoxicity reagent (containing GF-AFC and bis-AAF-R110 substrates) were added to each well, then incubated at 37° C. for 1 hour. Live cell and cytotoxicity outputs were measured on FLUOstar Omega microplate reader (BMG Labtech). To obtain the live cell output, fluorescence was measured at 355EX/520EM (wavelengths in nm); for the cytotoxicity output, fluorescence was measured at 485EX/520EM. Following this, 100 μL of Caspase-Glo 3/7 reagent were added to each well and incubated at 25° C. for 1 hour. Luminescence was then measured on FLUOstar Omega microplate reader (BMG Labtech). The fluorescence and luminescence signals thus obtained were corrected to the respective background controls (culture medium with no cells). Relative cell number values were obtained by normalising live cell outputs to vehicle control. Apoptosis values were obtained by dividing luminescence outputs to the respective live cell outputs, then normalising to vehicle control.
The extent of drug interaction was calculated in Microsoft Excel 2016 using the CDI formula AB/(A*B), where AB is the normalized reduction in cell viability of the sequential treatment, and A and B are the effects of single treatments. Statistical significance of CDI values for each AML sample was determined using a one sample t-test (base R package) with the null hypothesis being that the mean Log2(CDI) equals 0.

P31/Fuj cells = experiment: Phosphoproteomics (LC-MS/MS) and kinase network analysis of treated P31/Fuj cells
Experimental: To study ATRA effect over the phosphoproteome, P31/Fuj cells (10×10^6 cells at 0.5×10^6 cell/mL) were seeded in T75 flask and treated with either Et-OH, 1 μM ATRA or 10 μM ATRA for 5 days. […] For both experiments, cells were collected by centrifugation (1500 rpm for 5 min at 5° C.), then cell pellets were washed twice with ice cold PBS supplemented with phosphatase inhibitors (1 mM Na3VO4, 1 mM NaF) and stored at −80° C. Pellets were processed for phosphoproteomics analysis as indicated below.
In brief, cell pellets were lysed in 300 μL of urea buffer (8 M urea in 20 mM HEPES, pH 8.0, supplemented with 1 mM Na3VO4, 1 mM NaF, 1 mM Na4P2O7 and 1 mM P-glycerophosphate). Lysates were further homogenized by sonication (30 cycles of 30 s on 30 s off; Diagenode Bioruptor® Plus) and insoluble material was removed by centrifugation. Protein was quantified using BCA (Thermo Fisher Scientific). Then, 500 μg of protein were subjected to cysteine alkylation using sequential incubation with 10 mM dithiothreitol (DDT) and 16.6 mM iodoacetamide (IAM) for 1 h and 30 min, respectively, at 25° C. with agitation. Trypsin beads (50% slurry of TLCK-trypsin; Thermo Fisher Scientific; Cat. #20230) were equilibrated with 3 washes with 20 mM HEPES (pH 8.0), the urea concentration in the protein suspensions was reduced to 2 M by the addition of 20 mM HEPES (pH 8.0), 100 μL of equilibrated trypsin beads were added and the samples were incubated overnight at 37° C. Trypsin beads were removed by centrifugation (2000×g at 5° C. for 5 min) and the resulting peptide solutions were desalted through Oasis HLB cartridges (Waters) following the manufacturer's indications. Briefly, cartridges were set in a vacuum manifold device and the pressure was adjusted to 5 mmHg. Then, cartridges were conditioned with 1 mL acetonitrile (ACN) and equilibrated with 2.5 mL of wash solution (0.1% trifluoroacetic acid (TFA), 2% ACN). Peptides were loaded in the cartridges and washed with 1 mL of wash solution. Finally, peptides were eluted with 500 μL of glycolic acid buffer 1 (1 M glycolic acid, 5% TFA, 50% ACN). Enrichment of phosphorylated peptides was performed with TiO2 Beads (GL Sciences). The eluents were normalized to 1 mL with glycolic acid buffer 2 (1 M glycolic acid, 5% TFA, 80% ACN) and incubated with 50 μl of TiO2 buffer (50% slurry in 1% TFA) for 5 min at room temperature. TiO2 beads were packed by centrifugation into empty spin columns (Glygen Corporation; Cat. TT2EMT) previously washed with ACN. TiO2 beads were sequentially washed by centrifugation (1500×g for 3 min) with 100 μL of glycolic acid buffer 2, ammonium acetate solution (100 mM ammonium acetate in 25% ACN) and twice with neutral solution (10% ACN). For phosphopeptide elution, spin tips were transferred to fresh tubes, 50 μL of elution solution (5% NH4OH, 7.5% ACN) were added and tips were centrifuged at 1500×g for 3 min. The elution step was repeated a total of 4 times. Finally, samples were snap frozen, dried in a SpeedVac and phosphopeptide pellets were stored at −80° C.

Structure (SMILES): COc1ccc(-c2c(-c3ccc(C#N)c(F)c3)nc(N3CCC(N)CC3)n(C)c2=O)cc1F [CC-90011]
- drug interaction with MEKi in sequential treatment (CDI) (P31/Fuj AML cells): synergistic interactions with MEKi

Structure (SMILES): Cl.Cl.NC1CCC(N[C@@H]2C[C@H]2c2ccccc2)CC1 (relative stereo) [ORY-1001, rel-N1-[(1R,2S)-2-phenylcyclopropyl]-1,4-cyclohexanediamine, dihydrochloride]
- drug interaction with MEKi in sequential treatment (CDI) (P31/Fuj AML cells): synergistic interactions with MEKi

Structure (SMILES): CC1=C(/C=C/C(C)=C/C=C/C(C)=C/C(=O)O)C(C)(C)CCC1 [ATRA, all-trans-retinoic acid]
- sensitisation to MEKi (trametinib) treatment, cell viability (P31/Fuj AML cells; ATRA pre-treatment for five days, then trametinib, P31/Fuj cells (FIG. 2B)): sensitised myeloid P31/Fuj cells to MEKi treatment
- phosphorylation of the MAPK and PI3K pathway markers ERK1 pY204 and c-MYC pT58/pS62 (P31/Fuj cells; ATRA 1 or 10 μM, 5 days, P31/Fuj cells (FIG. 9B)): decreased
- phosphorylation of CEBPE and LTB4R (P31/Fuj cells; ATRA 1 or 10 μM, 5 days, dose-dependent manner, P31/Fuj cells (FIG. 9B)): increasing
- axes containing CDKL5 and stress kinases such as STK4 (P31/Fuj cells; ATRA 5 days, P31/Fuj cells): increasing
- phosphorylation of MAPK1 and PI3K signaling axes (P31/Fuj cells; ATRA 5 days, P31/Fuj cells): decreased
